{
  "source": "patent US20250275995A1",
  "about": "“NICOTINAMIDE RIBOSIDE DOSAGE REGIMEN FOR TREATING PARKINSON'S DISEASE” (VESTLANDETS INNOVASJONSSELSKAP AS (VIS), priority 2022, published 2025)",
  "key": {"adult humans": {"system": "adult humans", "conditions": "cited from earlier work"}, "blood NAD^+ levels": {"system": "blood NAD^+ levels", "test": "NAD-brain pharmacokinetic study: whole blood NAD+ response", "format": "in vivo, human", "description": "The NAD-brain study performs a parallel assessment of NAD replenishment therapy pharmacokinetics in the blood and brain of healthy human subjects and subjects with Parkinson's disease (PD). A total of 10 healthy individuals (5 men and 5 women) and 10 individuals with PD (5 men and 5 women) undergo repeated blood sampling and 31P-MRS brain scans during two 20-day periods, each of which starts with 8 days of daily intake of NR 600 mg×2, or NMN 600 mg×2. The two 20-day period is 14 days apart to allow for washout of the previous compound. Blood is analyzed for NR and NAD-metabolites using HPLC-MS. By this approach, we measured the simultaneous change in NAD-metabolism overtime in blood and brain and establish blood and brain pharmacokinetics for NAD replenishment therapy in humans.\nNR (Niagen®, Chromadex) at a dose of 600 mg×2 daily). NMN (Restorin®, from Seragon Pharmaceutics, or MIB-626 from Metro International Biotech) at a dose of 600 mg×2 daily.\n• At screening, participants are assessed for eligibility, inclusion/exclusion criteria, medical history and concomitant medication is recorded, and informed consent signed. • The NAD-brain study performs a parallel assessment of NAD replenishment therapy pharmacokinetics in the blood and brain of healthy human subjects and subjects with Parkinson's disease (PD). Healthy individuals and individuals with PD undergo repeated blood sampling and 31P-MRS brain scans during two 20-day periods, each of which starts with 8 days of daily intake of NR 600 mg×2, or NMN 600 mg×2 (Table 10). • For each 20-day period the testing (i.e., scanning and blood draw) frequency is shown in Table 10, below. The two 20-day periods are 14 days apart to allow for washout of the previous compound.\nBlood is analyzed for NR and NAD-metabolites using HPLC-MS metabolomics. Snap-frozen whole blood is used for the analysis of NAD^+. Blood is drawn from the participant in EDTA tube (VACUETTE® TUBE 2 ml K2E K2EDTA). The EDTA tube is gently inverted at least 10 times without shaking; 8×200 μl of blood from the EDTA tube is aliquoted into 8×0.5 ml micro tubes; these are closed, and all the micro tubes are immerse simultaneously in liquid nitrogen within 2 min from when blood has started flowing into the EDTA tube; then transferred frozen to −80° C. freezer for storage; stored at −80C in freezer-compatible cardboard or plastic storage boxes; and shipped on dry ice.\nThis is a pharmacokinetic (PK) study where 6 healthy individuals (3 male and 3 female): • 1) Received NR 1200 mg daily (600 mg×2) for 8 days, followed by an additional 11 days follow up, while undergoing serial blood and brain NAD-measurement. • 2) Received NMN 1200 mg daily (600 mg×2) for 8 days, followed by an additional 11 days follow up, while undergoing serial blood and brain NAD-measurement.\nThe individuals were mixed, so that in stage-1 three individuals received NR and three individuals received NMN, then in stage-2 they switched (Cross-over design). There were almost three weeks (20 days) of washout between the last dose of the first compound, and before the first dose of the second compounds."}, "[1]": {"system": "individuals with newly diagnosed, drug-naïve PD", "test": "NADPARK phase I trial: tolerability of NR therapy (1000 mg per day, 30 days) in PD", "format": "in vivo, human", "description": "The present inventors completed a phase I randomized, double blinded trial, aiming to assess the tolerability, cerebral bioavailability and molecular effects of NR therapy in PD. A total of 30 individuals with newly diagnosed, drug-naïve PD were randomized to NR 500 mg×2/day or placebo for 30 days (Cell Metab. 2022 Mar. 1; 34(3):396-407.e6).\nNR is well-tolerated. […] NR achieves brain penetration. […] While a significant NR-induced increase in cerebral NAD levels was detected at the group level, this effect was not uniform at the individual level."}, "[2]": {"test": "NR-SAFE: clinical laboratory values from blood samples (serum)", "format": "in vivo, human", "description": "Analysis of clinical laboratory values from blood samples was performed by the Department of Medical Biochemistry and Pharmacology (MBF) at Haukeland University Hospital, Bergen, Norway."}},
  "data": [
    {"molecule": "NC(=O)c1ccc[n+]([C@@H]2O[C@H](CO)[C@@H](O)[C@H]2O)c1", "note": "[NR, nicotinamide riboside]", "values": [
      {"measurement": "triglycerides, total cholesterol and LDL", "setting": "adult humans; NR at lower doses, e.g., in combination with pterostilbene", "value": "mild increase in triglycerides, total cholesterol and LDL"},
      {"measurement": "tolerability in adult humans", "setting": "adult humans; doses up to at least 2000 mg daily", "value": "well tolerated with no evidence of toxicity"},
      {"measurement": "blood NAD^+ levels", "setting": "blood NAD^+ levels; 1200 mg daily (600 mg×2) for 8 days, 6 healthy individuals", "value": "increased in all individuals"},
      {"measurement": "blood NAD^+ response, NR compared with NMN", "setting": "blood NAD^+ levels; 1200 mg daily (600 mg×2) for 8 days, cross-over", "value": "stronger than the NMN response"},
      {"measurement": "day of maximal NAD levels in the blood", "setting": "blood NAD^+ levels; 1200 mg daily for 8 days, last dose morning of day 8", "value": 9, "unit": "days"},
      {"measurement": "time to reach a steady heightened state of NAD-metabolism in blood and brain", "setting": "blood NAD^+ levels; NR supplementation", "value": "more than 8 days"},
      {"measurement": "plateau of blood NAD^+ levels", "setting": "blood NAD^+ levels; after 8 days of precursor intake, 1200 mg daily", "value": "did not plateau after 8 days"},
      {"measurement": "serum homocysteine levels", "setting": "[1]; NR 1000 mg daily, Phase I study", "value": "no change in serum homocysteine levels"},
      {"measurement": "compliance, tolerability, toxicity", "setting": "[1]; NR 1000 mg per day, 30 days, PD", "value": "excellent compliance, tolerability and no signs of toxicity or adverse side effects"},
      {"measurement": "clinical symptoms related to the observed HCy increase", "setting": "[2]; NR 3000 mg daily, 4 weeks", "value": "No participants developed any clinical symptoms"},
      {"measurement": "increase in triglycerides, total cholesterol and LDL", "setting": "[2]; NR 3000 mg daily, 4 weeks", "value": "no such effects"},
      {"measurement": "serum folic acid, methylmalonic acid and vitamin B12", "setting": "[2]; NR 3000 mg daily, 4 weeks", "value": "remained unchanged"},
      {"measurement": "serum triglyceride levels", "setting": "[2]; NR group, 3000 mg daily, 4 weeks", "value": "nominal trend for a reduction in serum triglyceride levels"},
      {"measurement": "change in serum HCy at second visit", "setting": "[2]; V2, day 3 of treatment, vs baseline, NR 3000 mg daily", "value": "+2.29±1.72 μmol/L"},
      {"measurement": "change in serum HCy after second visit until end of study", "setting": "[2]; V2 to V7, NR 3000 mg daily", "value": "-0.63 ± 1.76", "unit": "µmol/L"},
      {"measurement": "serum HCy levels relative to normal range", "setting": "[2]; most participants, NR 3000 mg daily", "value": "remained within normal range"},
      {"measurement": "change in serum homocysteine levels, last visit vs baseline", "setting": "[2]; Δ V7−V1, NR 3000 mg daily", "value": "+1.66±0.63 μmol/L"}
    ]}
  ]
}
